Measured values taken from US11814519B2, “Nitric oxide-releasing 3D-printing compositions and uses thereof” (Virginia Commonwealth University, priority 2020, dated 2023).

Tests used:
[1] = Optical images of a thin printed layer of donor-loaded silicone rubber soaked in phosphate buffered saline-EDTA (dissolution of donor particles); format: physicochemical; conditions: thin printed layer soaked in PBSE
Method: FIG. 4A-C is optical images of a thin layer of S-nitroso-N-acetylpenicillamine-doped silicone rubber before soaking (A) and after 24 h (B) and 48 h (C) of soaking in phosphate buffered saline-EDTA.
FIG. 7A-C is bright-field optical images of a thin layer of S-nitrosoglutathione-loaded silicon rubber before and after soaking in phosphate buffered saline-EDTA.

[2] = Solubility of the NO donor in solvents and in the silicone ink; format: physicochemical; conditions: silicone ink ingredients
[3] = cited from earlier work

SMILES	time required for dissolution of donor particles in the thin printed layer ([1]; optical images) [days]	solubility in the silicone rubber ink [2]	solvents in which the donor is soluble [3]	time for dissolution of donor particles in the thin printed layer ([1]; optical images (FIG. 7))	water solubility relative to SNAP ([3]; water)
CC(=O)N[C@H](C(=O)O)C(C)(C)SN=O (racemic) [SNAP, S-nitroso-N-acetylpenicillamine]	3	not dissolved in the ink ingredients	most soluble in organic solvents such as methanol and tetrahydrofuran	–	–
N[C@@H](CCC(=O)N[C@@H](CSN=O)C(=O)NCC(=O)O)C(=O)O [GSNO, S-nitrosoglutathione]	–	not soluble	only appreciably dissolved in water and DMSO	dissolved within a day	much higher
